Test results reported in ChEMBL document CHEMBL1201862, “PubChem BioAssay data set” (2004).
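1) Cells in 96-well plates. 2) Compound, 48 h, 5 concentrations. 3) Linear interpolation between surrounding doses. 4) Unreached endpoint = highest concentration. The concentration for 50% growth inhibition is given as GI50.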 Calls of active or inactive are those of the source. No stated cut-off is given here; in the data, active = GI50 up to about 1.1 µM and inactive = higher.

What was measured:
Assay in all cases: NCI-60 cell line screen, 48 h
786-0 = system: 786-0
A498 = system: A498
A549 = system: A549
ACHN = system: ACHN
BT-549 = system: BT-549
CAKI-1 = system: CAKI-1
CCRF-CEM = system: CCRF-CEM
COLO 205 = system: COLO 205
EKVX = system: EKVX
HCC 2998 = system: HCC 2998
HCT-116 = system: HCT-116
HCT-15 = system: HCT-15
HOP-62 = system: HOP-62
HOP-92 = system: HOP-92
HT-29 = system: HT-29
Hs-578T = system: Hs-578T
IGROV-1 = system: IGROV-1
K562 = system: K562
KM12 = system: KM12
LOX IMVI = system: LOX IMVI
M14 = system: M14
MCF7 = system: MCF7
MDA-MB-231 = system: MDA-MB-231
MDA-MB-435 = system: MDA-MB-435
MDA-N = system: MDA-N
MOLT-4 = system: MOLT-4
Malme-3M = system: Malme-3M
NCI-H226 = system: NCI-H226
NCI-H23 = system: NCI-H23
NCI-H460 = system: NCI-H460
NCI-H522 = system: NCI-H522
NCI/ADR-RES = system: NCI/ADR-RES
OVCAR-3 = system: OVCAR-3
OVCAR-4 = system: OVCAR-4
OVCAR-5 = system: OVCAR-5
OVCAR-8 = system: OVCAR-8
PC-3 = system: PC-3
RXF 393 = system: RXF 393
SF-268 = system: SF-268
SF-295 = system: SF-295
SF-539 = system: SF-539
SK-MEL-28 = system: SK-MEL-28
SK-MEL-2 = system: SK-MEL-2
SK-MEL-5 = system: SK-MEL-5
SK-OV-3 = system: SK-OV-3
SN12C = system: SN12C
SNB-19 = system: SNB-19
SNB-75 = system: SNB-75
SR = system: SR
SW-620 = system: SW-620
T47D = system: T47D
TK-10 = system: TK-10
U-251 = system: U-251
UACC-257 = system: UACC-257
UACC-62 = system: UACC-62
UO-31 = system: UO-31
DU-145 = system: DU-145
HL-60 = system: HL-60
RPMI-8226 = system: RPMI-8226

## CC(C)C(C/C=C1/CC(CO)(COC(=O)c2ccccc2)OC1=O)C(C)C (configuration not stated)
786-0
  GI50: 11 µM (inactive)
A498
  GI50: 18.2 µM (inactive)
A549
  GI50: 12.4 µM (inactive)
ACHN
  GI50: 13.9 µM (inactive)
BT-549
  GI50: 18.3 µM (inactive)
CAKI-1
  GI50: 14.6 µM (inactive)
CCRF-CEM
  GI50: 16.8 µM (inactive)
COLO 205
  GI50: 3.63 µM (inactive)
EKVX
  GI50: 19.2 µM (inactive)
HCC 2998
  GI50: 18.8 µM (inactive)
HCT-116
  GI50: 16 µM (inactive)
HCT-15
  GI50: 20 µM
HOP-62
  GI50: 9.93 µM (inactive)
HOP-92
  GI50: 17.5 µM (inactive)
HT-29
  GI50: 18.7 µM (inactive)
Hs-578T
  GI50: 7.43 µM (inactive)
IGROV-1
  GI50: 20.2 µM (inactive)
K562
  GI50: 9.04 µM (inactive)
KM12
  GI50: 15.9 µM (inactive)
LOX IMVI
  GI50: 23.8 µM (inactive)
M14
  GI50: 15.7 µM (inactive)
MCF7
  GI50: 19.6 µM (inactive)
MDA-MB-231
  GI50: 15.7 µM (inactive)
MDA-MB-435
  GI50: 26 µM (inactive)
MDA-N
  GI50: 15.7 µM (inactive)
MOLT-4
  GI50: 11.8 µM (inactive)
Malme-3M
  GI50: 12 µM (inactive)
NCI-H226
  GI50: 16 µM (inactive)
NCI-H23
  GI50: 18.1 µM (inactive)
NCI-H460
  GI50: 17 µM (inactive)
NCI-H522
  GI50: 19.9 µM (inactive)
NCI/ADR-RES
  GI50: 19.2 µM (inactive)
OVCAR-3
  GI50: 17.5 µM (inactive)
OVCAR-4
  GI50: 15 µM (inactive)
OVCAR-5
  GI50: 16.9 µM (inactive)
OVCAR-8
  GI50: 22.4 µM (inactive)
PC-3
  GI50: 13.6 µM (inactive)
RXF 393
  GI50: 16.7 µM (inactive)
SF-268
  GI50: 16.8 µM (inactive)
SF-295
  GI50: 12.2 µM (inactive)
SF-539
  GI50: 4.69 µM (inactive)
SK-MEL-28
  GI50: 14.1 µM (inactive)
SK-MEL-2
  GI50: > 100 µM (inactive)
SK-MEL-5
  GI50: 8.45 µM (inactive)
SK-OV-3
  GI50: 45.4 µM (inactive)
SN12C
  GI50: 15.5 µM (inactive)
SNB-19
  GI50: 16.7 µM (inactive)
SNB-75
  GI50: 7.5 µM (inactive)
SR
  GI50: 30.6 µM (inactive)
SW-620
  GI50: 16.4 µM (inactive)
T47D
  GI50: 15.6 µM (inactive)
TK-10
  GI50: 16.5 µM (inactive)
U-251
  GI50: 16.1 µM (inactive)
UACC-257
  GI50: 24.8 µM (inactive)
UACC-62
  GI50: 23.9 µM (inactive)
UO-31
  GI50: 16.3 µM (inactive)

## O=C1OCC2OC(=O)c3cc(O)c(O)c(O)c3-c3c(O)c(O)c(O)c4c3C(=O)OC(C2OC(=O)c2cc(O)c(O)c(O)c2-c2c1cc(O)c(O)c2O)C1OC(=O)C2C4=C(O)C(=O)C23Oc2cc(O)c4c(c2[C@H]13)O[C@H](c1ccc(O)c(O)c1)[C@@H](O)C4 (some centres not stated)
786-0
  GI50: 21.4 µM (inactive)
A498
  GI50: > 100 µM (inactive)
A549
  GI50: 19.1 µM (inactive)
ACHN
  GI50: 23 µM (inactive)
BT-549
  GI50: 19.3 µM (inactive)
CAKI-1
  GI50: 16.2 µM (inactive)
CCRF-CEM
  GI50: 19.4 µM (inactive)
COLO 205
  GI50: 19.2 µM (inactive)
DU-145
  GI50: 30.9 µM (inactive)
EKVX
  GI50: 12.7 µM (inactive)
HCC 2998
  GI50: 25.2 µM (inactive)
HCT-116
  GI50: 17.3 µM (inactive)
HCT-15
  GI50: 18.4 µM
HL-60
  GI50: 18.5 µM (inactive)
HOP-62
  GI50: 41.7 µM (inactive)
HOP-92
  GI50: 25.9 µM (inactive)
HT-29
  GI50: 16.2 µM (inactive)
Hs-578T
  GI50: 28.1 µM (inactive)
IGROV-1
  GI50: 26.4 µM (inactive)
K562
  GI50: 26 µM (inactive)
KM12
  GI50: 24.8 µM (inactive)
LOX IMVI
  GI50: 14.8 µM (inactive)
M14
  GI50: 12.6 µM (inactive)
MCF7
  GI50: 23.1 µM (inactive)
MDA-MB-231
  GI50: 18.9 µM (inactive)
MDA-MB-435
  GI50: 18.5 µM (inactive)
MOLT-4
  GI50: 22.6 µM (inactive)
Malme-3M
  GI50: 23.1 µM (inactive)
NCI-H226
  GI50: 14.2 µM (inactive)
NCI-H23
  GI50: 19.8 µM (inactive)
NCI-H460
  GI50: 20.5 µM (inactive)
NCI-H522
  GI50: 17.4 µM (inactive)
NCI/ADR-RES
  GI50: 23.3 µM (inactive)
OVCAR-3
  GI50: 30.1 µM (inactive)
OVCAR-4
  GI50: 15.7 µM (inactive)
OVCAR-5
  GI50: 14.6 µM (inactive)
OVCAR-8
  GI50: 22.2 µM (inactive)
PC-3
  GI50: 38.5 µM (inactive)
RPMI-8226
  GI50: 24.5 µM (inactive)
RXF 393
  GI50: 16.8 µM (inactive)
SF-268
  GI50: 19 µM (inactive)
SF-295
  GI50: 19.8 µM (inactive)
SK-MEL-28
  GI50: 66.7 µM (inactive)
SK-MEL-2
  GI50: 20.2 µM (inactive)
SK-MEL-5
  GI50: 16 µM (inactive)
SK-OV-3
  GI50: 44.1 µM (inactive)
SN12C
  GI50: 18 µM (inactive)
SNB-19
  GI50: 41.4 µM (inactive)
SNB-75
  GI50: 28.4 µM (inactive)
SR
  GI50: 27.5 µM (inactive)
SW-620
  GI50: 20.6 µM (inactive)
T47D
  GI50: 20.7 µM (inactive)
U-251
  GI50: 16.6 µM (inactive)
UACC-257
  GI50: 29 µM (inactive)
UACC-62
  GI50: 20.4 µM (inactive)
UO-31
  GI50: 17.8 µM (inactive)
